Measurements from patent US7122335B1, “Compounds and methods to enhance rAAV transduction” (priority 1999, dated 2006).
Where “and” joins values, the source holds several entries; their conditions need not be identical. Identical values can stand only once. Peptide text beside a SMILES is read from it. * marks the point of attachment. Cbz = O=C(OCc1ccccc1)*

Legend:
[1] = system: human bronchial epithelia; assay: Southern blot of Hirt DNA for rAAV genomes in polarized airway epithelia; type: cell-based
Experimental: FIGS. 15A–C. Examination of rAAV endocytosis by Southern blot analysis of viral DNA. Hirt DNA from AV.GFP3ori infected or mock infected (Lanes 1 and 7 in both FIGS. 15A and 15B) human bronchial epithelia were extracted for a direct examination of viral genomes by Southern blotting against a P^32-labeled EGFP probe. FIG. 15A depicts viral binding studies in the presence and absence of LLnL with or without EGTA treatment prior to apical or basolateral infection for 1 hour at 4° C. Cell surface-bound virus was completely removed by trypsin (FIG. 15A, lanes 2 through 6). To determine the amount of the surface-bound rAVV, cells were infected with AV.GFP3ori for 1 hour at 4° C. and were not treated with trypsin prior to Hirt DNA extraction. Panel A: lane 8: apical AAV infection; lane 9: apical AAV infection in the presence of LLnL; lane 10: cells were pre-treated with hypotonic EGTA prior to apical infection in the presence of LLnL; lane 11: basolateral infection; lane 12: basolateral infection in the presence of LLnL. FIG. 15B depicts the results of studies evaluating rAAV internalization from either the apical or the basolateral surface in the presence or absence of LLnL, and the internalization from the apical surface after combined treatment with hypotonic EGTA and LLnL. To detect the net amount of the internalized viral genome, all samples in FIG. 15B were treated with trypsin just before Hirt DNA was harvested. The extent of the internalized virus at 4 hours (FIG. 15B, lanes 2 through 6) and 24 hours (FIG. 15B, lanes 8 through 12) incubation at 37° C. after infection is represented by the intensity of the 1.6 kb single stranded viral genome band. FIG. 15B; lane 2; apical AAV infection for 4 hours; lane 3: apical AAV infection in the presence of LLnL for 4 hours; lane 4: cells were pre-treated with hypotonic EGTA prior to apical infection in the presence of LLnL for 4 hours; lane 5: basal infection for 4 hours; lane 6: basolateral infection in the presence of LLnL for 4 hours; lane 8: apical infection for 24 hours; lane 9: apical infection in the presence of LLnL for 24 hours; lane 10: cells were pre-treated with hypotonic EGTA prior to apical infection in the presence of LLnL for 24 hours; lane 11: basolateral infection for 24 hours; lane 12: basolateral infection in the presence of LLnL for 24 hours. […]
Molecular analysis of rAAV viral genomes owing infection of polarized airway epithelial cultures. […] Following binding, the extent of viral internalization was assessed by continuing incubations in the presence of virus at 37° C. for 4–24 hours. […] The 1.6 kb single stranded viral DNA, the 2.7 kb double stranded circular intermediate, and the 4.7 kb double stranded replication from viral genome were detected with a transgene EGFP specific probe at 5×10^6 cpm/ml. […]

mouse lung = assay: rAAV (AV.LacZ) gene transfer in mouse lung in vivo; parameters: species or system BALB/c mice
Experimental: FIGS. 17A–F. Persistent induction of rAAV mediated gene transfer in mouse conducting airways by proteasome inhibitors. FIGS. 17A–C) Recombinant AV.Alkphos (5×10^10 particles) was administered to mouse lung either as virus alone in PBS or virus in combination with 40 μM LLnL in PBS. Virus was directly instilled into […] mice trachea with a 30 G needle in a total volume of 30 μl. To insure the spread of the virus in mouse lung, 50 μl air was pumped into lung through the same syringe immediately after virus was administered. Ninety days after infection, lungs were harvested intact and fixed in 4% paraformaldehyde followed by cryosection. AAV-mediated transgene expression was evaluated by 10 μm tissue sections staining for heat-resistant alkaline phosphatase. FIG. 17A: infection with AAV alone; FIGS. 17B and 17C: infection with AAV supplemented with 40 µM of LLnL. FIGS. 17D–F) 6 week old BALB/c mouse (N=3 animals in each group) were infected with 5×10^10 DNA particles of AV.LacZ in the absence or presence of 400 μM Z-LLL by nasal instillation. Representative examples of histochemical staining for LacZ expression in large bronchioles 150 days post-infection are shown in FIGS. 17D and 17E. The right and left sides of each panel represent Nomarski and bright field photomicrographs, respectively. The 100 μm scale bar applies to all photomicrographs. The mean (+/−SEM) percentage of LacZ expressing epithelial cells at various levels of the airway was quantitated using the morphometric procedures outlined in the methods, and the analysis represents results from three independent animals for each group (FIG. 17F).
In vivo studies in mice. Animal studies were performed in accordance with the institutional guidelines of the University of Iowa To determine the effect of the proteasome inhibitor on AAV mediated gene transfer in mouse lung, 6 week-old BALB/c mice were lightly anesthetized using a methoxyflurane chamber. AV.LacZ (5×10^10 particles) was administered alone or with 400 μM Z-LLL in a 10 μl instillation by nasal aspiration as described by Walters et al. (2000). To prevent unforeseen toxicity of DMSO solvent, the proteasome inhibitor Z-LLL was dissolved in ethanol as a 40 mM stock solution and was included in the viral inoculum at 1% final concentration. Viral infection controls in the absence of Z-LLL also contained a 1% final concentration of ethanol. […] The trachea was intubated and instilled at 10 cm of water pressure with the following solutions in order: PBS, 0.5% glutaraldehyde, 1 mM MgCl2/PBS, and finally X-gal staining reagent for an overnight incubation at room temperature. The X-gal stained mouse lungs were then post fixed in 10% neutral buffered formalin for 48 hours at room temperature and cryopreserved in serial 10%, 20% and 30% sucrose/PBS solutions. Lungs (N=3 for each condition) were embedded in OCT (optimal cutting temperature; Baxter, Warrendale, Pa.) and 15 μm serially sections were analyzed for gene transfer by calculating the percentage of positive cells in the airway epithelium. The diameter of the airway was recorded for classification (>360 μm, 260–350 μm, 160–250 μm, <150 μm) of results following morphometric analysis. Greater than 150 airway cross-sections were quantified for each experimental condition.

| Molecule | rAAV binding to either surface (Southern blot) ([1]; 1 hour at 4° C.) | enzymatic degradation of internalized AAV viral DNA ([1]; LLnL alone) | amount of virus internalized from apical surface ([1]; hypotonic EGTA pretreatment and LLnL) | airway cells transduced by AV.LacZ, average (mouse lung; 400 μM Z-LLL intranasal with 5×10^10 particles, 150 days) | airway cells in the smaller bronchioles (<150 mm) expressing β-galactosidase (mouse lung; 400 μM Z-LLL, 150 days) | transduction of lung, in words (mouse lung; 400 μM Z-LLL, 150 days) | transduction efficiency in larger bronchioles (>350 mm), mean % of airway epithelium (mouse lung; 400 μM Z-LLL, 150 days post-infection) | transgene expression (X-gal staining) in lung (mouse lung; 3 and 10 days post infection) |
| --- | --- | --- | --- | --- | --- | --- | --- | --- |
| N-acetyl-L-leucinyl-L-leucinal-L-norleucinal [LLnL] | not affected | did not substantially prevent enzymatic degradation | substantially increased the amount of virus internalized | – | – | – | – | – |
| CC(C)C[C@@H](C=O)NC(=O)[C@H](CC(C)C)NC(=O)[C@H](CC(C)C)NC(=O)OCc1ccccc1 [Z-LLL, N-carbobenzoxyl-L-leucinyl-L-leucinyl-L-leucinal] (Cbz-Leu-Leu-Leu-aldehyde) | – | – | – | about 5.88% | 1.37±0.41% | significant transduction was achieved | 10.36±1.63% and 10.36+/−1.63% | no detectable transgene expression |
